Data as given in patent publication US20240148874A1, “IMMUNOADJUVANT-BASED HYDROGEL COMPOSITION AND USE THEREOF” (SOOCHOW UNIVERSITY, priority 2020, published 2024).

What was measured:
Type in all cases: in vivo
CT26 colon cancer tumor [1] = assay: Chemotherapy sensitization in mouse colon cancer subcutaneous tumor model (Example 1); settings: CT26 tumor-bearing BALB/c mice, compared with control group; intratumoral 25 μL, CpG-ODN 15 μg per mouse; oxaliplatin 3 mg/kg i.v. days 7, 10, 13, 16
Excerpt: The sodium alginate hydrogel radiotherapy/chemotherapy sensitizing agent encapsulating the immunoadjuvant CpG-ODN was used for chemotherapy sensitization in a mouse colon cancer subcutaneous tumor model. The treatment was started on day 7 after inoculation of the mouse CT26 colon cancer tumor. Tumor-bearing BALB/c mice were randomly divided into the following 4 groups (6 mice in each group): Group 1: control group (untreated); Group 2: intratumoral injection of sodium alginate and intravenous injection of oxaliplatin (ALG+OxPt);
Group 3: intratumoral injection of sodium alginate hydrogel radiotherapy/chemotherapy sensitizing agent encapsulating the immunoadjuvant CpG-ODN (ALG/CpG); Group 4: intratumoral injection of sodium alginate hydrogel radiotherapy/chemotherapy sensitizing agent encapsulating the immunoadjuvant CpG-ODN, and intravenous injection of oxaliplatin (ALG/CpG+OxPt). The final concentration of sodium alginate in each treatment group was 10 mg/mL, the volume of intratumoral injection was 25 μL, and the dose of CpG-ODN per mouse was 15 μg. On days 7, 10, 13 and 16, oxaliplatin was administered intravenously at a dose of 3 mg/kg body weight. After respective treatments for the mice, the tumor growth was measured.

CT26 colon cancer tumor [2] = assay: Chemotherapy sensitization with smart hydrogel in colon cancer subcutaneous tumor mouse model (Example 3); settings: CT26 tumor-bearing BALB/c mice, compared with control group; CpG-ODN 15 μg per mouse intratumoral; oxaliplatin 3 mg/kg i.v. days 7, 10, 13, 16
Method: The mice were treated on day 7 after the inoculation of CT26 colon cancer tumor. Tumor-bearing BALB/c mice were randomly divided into the following 6 groups (6 mice in each group): Group 1: control group (untreated); Group 2: intratumoral injection of sodium alginate and intravenous injection of oxaliplatin (ALG+OxPt); Group 3: intratumoral injection of mixture of sodium alginate with CpG-ODN (ALG/CpG); Group 4: intratumoral injection of mixture of sodium alginate and CpG-ODN and intravenous injection of oxaliplatin (ALG/CpG+OxPt); Group 5: intratumoral injection of smart sodium alginate hydrogel preparation (ALG-Aapt/CpG) capable of ATP-responsive slow release of immunoadjuvant obtained in Step (5) of Example 2; Group 6: intratumoral injection of smart sodium alginate hydrogel preparation capable of ATP-responsive slow release of immunoadjuvant obtained in Step (5) of Example 2, and intravenous injection of oxaliplatin (ALG-Aapt/CpG+OxPt). The final concentration of sodium alginate in each treatment group was 10 mg/mL, the volume of intratumoral injection was 25 μL, and the dose of CpG-ODN per mouse was 15 μg. On days 7, 10, 13 and 16, oxaliplatin was administered intravenously at a dose of 3 mg/kg body weight. After respective treatments for the mice, the tumor growth was measured.

CT26 colon cancer tumor [3] = assay: Immune response evaluation in chemotherapy sensitization, colon cancer subcutaneous tumor mouse model (Example 4); settings: day 5 after treatment, CT26 BALB/c mice, compared with control group
Method: The mice were treated on day 7 after the inoculation of CT26 colon cancer tumor. Tumor-bearing BALB/c mice were randomly divided into the following 4 groups (6 mice in each group): Group 1: control group (untreated); Group 2: intratumoral injection of sodium alginate and intravenous injection of oxaliplatin (OxPt); Group 3: intratumoral injection of smart sodium alginate hydrogel preparation (ALG-A-Apt/CpG) capable of ATP-responsive slow release of immunoadjuvant obtained in Step (5) of Example 2; Group 4: intratumoral injection of smart sodium alginate hydrogel preparation capable of ATP-responsive slow release of immunoadjuvant obtained in Step (5) of Example 2 and intravenous injection of oxaliplatin (ALG-A-Apt/CpG@OxPt). The final concentration of sodium alginate in each treatment group was 10 mg/mL, the volume of intratumoral injection was 25 μL, and the dose of CpG-ODN per mouse was 15 μg. On days 7, 10, 13 and 16, oxaliplatin was administered intravenously at a dose of 3 mg/kg body weight. On day 5 after the treatment, mice in each group were sacrificed, and the maturity of dendritic cells in inguinal lymph nodes, percentage of CD8 positive T cells in the tumor, and ratio of CD8 positive T cells to regulatory T cells was identified.

In the case of oxaliplatin [ALG+OxPt], the tumor growth (CT26 colon cancer tumor [1]) is reported as “significantly inhibited”, the tumor growth (CT26 colon cancer tumor [2]) is reported as “only partially inhibited” and the “percentage of CD8 positive T cells in the tumor” value (CT26 colon cancer tumor [3]) is reported as “not significantly improved”. For the same substance, the “ratio of CD8 positive T cells to regulatory T cells” value (CT26 colon cancer tumor [3]) was “not significantly improved” and the “maturity of dendritic cells (DC) in lymph nodes” value (CT26 colon cancer tumor [3]; inguinal lymph nodes) was “not significantly improved”.
